Measurements taken from patent US7090991B2 (priority 1999, dated 2006).
Non-standard residues stand in square brackets, D forms with d. Residues, ends and D or L forms follow the SMILES beside them. No end group written: not given here.

Experiments:
[1] = system: Growth Hormone Secretagoge Receptor; experiment: Test cell + FUS1p-lacZ plasmid, GHSR; assay type: cell-based, sheep; settings: CY18879, CP6416, saturating or near saturating ligand
Procedure: (§1) Detection of LacZ activity in the detector cells (data shown in Table 6) was performed essentially as described in the experimental protocol of Example 1, with the exception that 20 microliters of a solution containing 0.5 mM fluorescein di-β-D-galactopyranoside (FDG), 125 mM PIPES pH 7.2, 1.25% Triton X-100 was added instead of the 20 microliters of CPRG solution utilized in Example 1. Following addition of the FDG solution, the reaction was incubated for 30 minutes at 37° C. After stopping the reaction with 20 microliters of 1 M Na2CO3, the fluorescence was determined utilizing a 96-well plate reader with an excitation wavelength of 485 nm and an emission wavelength of 535 nm.

[2] = system: Growth Hormone Secretagoge Receptor; experiment: Test cell + detector cell (FDG), GHSR; assay type: cell-based, sheep; settings: CY18879, CP6416, saturating or near saturating ligand
Procedure: (§2) A strain of test cells was established by transforming (transfecting) a culture of S. cerevisiae yeast cells with the human1a (ML1a) receptor gene. Cultures of MATα test cells containing a heterologous ML1a receptor (CY1 3858) and MATa detector cells (a CY19 related strain containing the CP1212 FUS1p-LacZ plasmid) were grown overnight to stationary phase in media selective for the maintenance of the plasmids (SCD-leu media for the MATα cells and SCD-ura for the MATα cells). The cells were diluted with additional medium and permitted to recover from stationary phase for several hours. After determination of the optical density of the cultures, the cells were harvested by centrifugation, were washed once in non-selective synthetic medium, and were resuspended in non-selective medium at an approximate optical density (measured at 600 nm) of 0.4. […] The final volume of cells, culture medium and ligand was about 100 microliters. The cells were mixed using a plate-mixer and incubated at 30° C. […] The reaction was then stopped by the addition of 60 microliters 1 M sodium carbonate, and the absorbance at a wavelength of 575 nm was determined using a plate reader. […]

R-VIP-1 = experiment: Test cell + FUS1p-lacZ plasmid, R-VIP-1; assay type: cell-based, Rat; settings: CY18636, CP4110, saturating or near saturating ligand
Procedure: as §1

R-VIP-1 Rat = experiment: Test cell + detector cell (FDG), R-VIP-1; assay type: cell-based; settings: CY18636, CP4110, saturating or near saturating ligand
Procedure: as §2

melatonin ML1a receptor = target: T1, melatonin ML1a receptor (Homo sapiens, UniProt P48039); experiment: Two cell assay: MATα test cells with ML1a receptor (CY13858) + MATa FUS1p-LacZ detector cells, β-galactosidase (CPRG); assay type: cell-based
T1 construct: expressed in transfected cells; host or cells: S. cerevisiae MATα test cells (CY13858; CY18596, MFα1-deleted), plasmid CP2695
T1 sequence (P48039 whole entry): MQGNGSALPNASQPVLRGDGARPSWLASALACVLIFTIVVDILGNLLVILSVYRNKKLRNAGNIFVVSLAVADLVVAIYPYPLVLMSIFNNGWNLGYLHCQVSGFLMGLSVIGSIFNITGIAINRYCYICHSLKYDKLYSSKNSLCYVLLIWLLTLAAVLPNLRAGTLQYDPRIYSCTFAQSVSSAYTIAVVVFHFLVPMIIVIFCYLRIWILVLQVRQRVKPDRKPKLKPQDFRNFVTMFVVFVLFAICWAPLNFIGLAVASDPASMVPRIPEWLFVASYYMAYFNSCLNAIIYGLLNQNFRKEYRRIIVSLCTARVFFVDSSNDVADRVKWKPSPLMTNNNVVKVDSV
Source text: Binding of cognate ligand to the heterologous receptor in the test cell activates the receptor, causing a signal to be transduced through the pheromone response pathway, ultimately resulting in the secretion of α-factor from the cell. Specific receptors at the surface of the detector cells bind to the secreted α-factor and are activated by it, resulting in the transduction of a signal through the pheromone response pathway in these cells, and activating the transcription of the lacZ gene. The activity of the β-galactosidase expressed from this lacZ gene may be determined and thereby enables a determination of the activity of the pheromone response pathway in the first, test cells.
A strain of test cells was established by transforming (transfecting) a culture of S. cerevisiae yeast cells with the human1a (ML1a) receptor gene. […] After determination of the optical density of the cultures, the cells were harvested by centrifugation, were washed once in non-selective synthetic medium, and were resuspended in non-selective medium at an approximate optical density (measured at 600 nm) of 0.4. […] The reaction was then stopped by the addition of 60 microliters 1 M sodium carbonate, and the absorbance at a wavelength of 575 nm was determined using a plate reader.

ML1a melatonin receptor = target: T2, ML1a melatonin receptor (Homo sapiens, UniProt P48039); experiment: Two cell assay: MFα1-deleted MATα test cells with ML1a receptor (CY18596) + MATa detector cells, β-galactosidase (CPRG); assay type: cell-based; settings: MFα1-deleted test cells expressing ML1a receptor
T2 construct: expressed in transfected cells; host or cells: S. cerevisiae MATα test cells (CY13858; CY18596, MFα1-deleted), plasmid CP2695
T2 sequence (P48039 whole entry): as above
Procedure: (§3) Cultures of MATα test cells containing a heterologous ML1a receptor (CY1 3858) and MATa detector cells (a CY19 related strain containing the CP1212 FUS1p-LacZ plasmid) were grown overnight to stationary phase in media selective for the maintenance of the plasmids (SCD-leu media for the MATα cells and SCD-ura for the MATα cells). The cells were diluted with additional medium and permitted to recover from stationary phase for several hours. After determination of the optical density of the cultures, the cells were harvested by centrifugation, were washed once in non-selective synthetic medium, and were resuspended in non-selective medium at an approximate optical density (measured at 600 nm) of 0.4. […] The final volume of cells, culture medium and ligand was about 100 microliters. The cells were mixed using a plate-mixer and incubated at 30° C. […] The reaction was then stopped by the addition of 60 microliters 1 M sodium carbonate, and the absorbance at a wavelength of 575 nm was determined using a plate reader.
Using the experimental protocol described in Example 1, MATα test cells lacking the MFα1 gene and containing a plasmid encoding the ML1a receptor (CY18596) or a mock control plasmid (CY18594) were mixed with an equal number of MATa detector cells having a FUS1-LacZ plasmid. […]

[3] = system: MATα test cells lacking the ML1a receptor; experiment: Two cell assay: MFα1-deleted MATα test cells with mock plasmid (CY18594) + MATa detector cells, β-galactosidase (CPRG); assay type: cell-based, S. cerevisiae; settings: in the presence of melatonin
Procedure: as §3

Bradykinin 2 Receptor [4] = target: T3, Bradykinin 2 Receptor (Homo sapiens, UniProt P30411); experiment: Test cell + FUS1p-lacZ plasmid, BK2; assay type: cell-based; settings: CY18778, CP1930, saturating or near saturating ligand
T3 construct: expressed in transfected cells; host or cells: S. cerevisiae MATα test cells, plasmid CP1930
T3 sequence (P30411 1-391): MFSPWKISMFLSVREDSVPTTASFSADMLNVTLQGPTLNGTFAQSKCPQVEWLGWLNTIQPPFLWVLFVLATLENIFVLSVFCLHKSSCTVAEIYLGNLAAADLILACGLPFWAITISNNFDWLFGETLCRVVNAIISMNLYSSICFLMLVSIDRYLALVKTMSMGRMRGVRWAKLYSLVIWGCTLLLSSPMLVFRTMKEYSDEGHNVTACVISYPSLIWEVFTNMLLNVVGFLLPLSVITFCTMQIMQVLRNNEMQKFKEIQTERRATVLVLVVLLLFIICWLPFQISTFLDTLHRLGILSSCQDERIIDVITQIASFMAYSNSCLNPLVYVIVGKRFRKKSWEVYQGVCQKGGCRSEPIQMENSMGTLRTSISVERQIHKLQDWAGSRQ
Procedure: as §1

Bradykinin 2 Receptor [5] = target: T3, Bradykinin 2 Receptor; experiment: Test cell + detector cell (FDG), BK2; assay type: cell-based; settings: CY18778, CP1930, saturating or near saturating ligand
Procedure: as §2

C[C@H](NC(=O)[C@@H](Cc1c[nH]c2ccccc12)NC(=O)[C@@H](N)Cc1c[nH]cn1)C(=O)N[C@@H](Cc1c[nH]c2ccccc12)C(=O)N[C@H](Cc1ccccc1)C(=O)N[C@@H](CCCCN)C(N)=O [GHRP-6] (H-H[dW]AW[dF]K-NH2)
Fold induction, Test Cell + FUS1p-lacZ plasmid [1]: 9 fold | Fold induction, Test cell + Detector Cell [2]: 4 fold

NC(=O)CC[C@@H]1NC(=O)[C@H](Cc2ccccc2)NC(=O)[C@H](Cc2ccc(O)cc2)NC(=O)[C@@H](N)CSSC[C@@H](C(=O)N2CCC[C@H]2C(=O)N[C@@H](CCCN=C(N)N)C(=O)NCC(N)=O)NC(=O)[C@H](CC(N)=O)NC1=O [Vasopressin]
Fold induction, Test Cell + FUS1p-lacZ plasmid (R-VIP-1): 20 fold | Fold induction, Test cell + Detector Cell (R-VIP-1 Rat): 8 fold

COc1ccc2[nH]cc(CCNC(C)=O)c2c1 [melatonin]
β-galactosidase activity in the detector cells (melatonin ML1a receptor; in the presence of melatonin, no ligand approximately 1.1 units): approximately 1.8 units | induction in β-galactosidase activity (melatonin ML1a receptor; melatonin versus no ligand): approximately 1.6 fold | β-galactosidase activity (ML1a melatonin receptor; in the presence of melatonin): approximately 2.1 units | increase in β-galactosidase activity (ML1a melatonin receptor; melatonin versus no ligand): ~5.2 fold | α-factor secretion by test cells as detected by detector cells [3]: did not secrete any additional α-factor

RPPGFSPFR [Bradykinin]
Fold induction, Test Cell + FUS1p-lacZ plasmid (Bradykinin 2 Receptor [4]): 101 fold | Fold induction, Test cell + Detector Cell (Bradykinin 2 Receptor [5]): 84 fold
